Data as given in the NIST ThermoML archive (doi:10.1021/acs.jced.8b01120).

Experiment: xn = mol fraction of the nth substance listed
Settings: 100 kPa, Liquid; for speed of sound: Single path-length method; for mass density: Vibrating tube method

CCCCCOC(C)=O [pentyl ethanoate] + CCCCN(CCCC)CCCC
Settings | mass density, 293.15 K [kg/m3] | mass density, 298.15 K [kg/m3] | mass density, 303.15 K [kg/m3] | mass density, 308.15 K [kg/m3] | mass density, 313.15 K [kg/m3] | speed of sound, 293.15 K [m/s] | speed of sound, 298.15 K [m/s] | speed of sound, 303.15 K [m/s] | speed of sound, 308.15 K [m/s] | speed of sound, 313.15 K [m/s]
x2 = 0 | 876.248 | 871.32 | 865.782 | 860.581 | 855.357 | 1243 | 1220.7 | 1196.8 | 1174.2 | 1152.3
x2 = 0.0575 | 865.692 | 860.668 | 855.073 | 849.94 | 844.475 | 1244.2 | 1221.5 | 1197.8 | 1175.7 | 1153.7
x2 = 0.1106 | 856.436 | 851.526 | 846.117 | 841.075 | 835.813 | 1245.2 | 1222.5 | 1198.8 | 1177.2 | 1155.7
x2 = 0.2013 | 842.712 | 837.942 | 832.841 | 827.884 | 823.003 | 1247.7 | 1224.3 | 1201.8 | 1179.7 | 1158.8
x2 = 0.3229 | 827.693 | 823.116 | 818.312 | 813.425 | 808.951 | 1249.6 | 1227.8 | 1205.4 | 1184.1 | 1163.1
x2 = 0.4109 | 818.21 | 813.799 | 809.136 | 804.737 | 800.073 | 1251.4 | 1229.9 | 1207.8 | 1187.2 | 1167.2
x2 = 0.5032 | 809.565 | 805.278 | 800.772 | 796.389 | 791.981 | 1253.8 | 1232.5 | 1210.5 | 1190.4 | 1170
x2 = 0.6202 | 799.842 | 795.692 | 791.362 | 787.138 | 782.852 | 1255.6 | 1235 | 1214.6 | 1194.1 | 1174.1
x2 = 0.7403 | 791.114 | 787.079 | 782.913 | 778.804 | 774.698 | 1258.8 | 1238.5 | 1217.8 | 1198.2 | 1178.9
x2 = 0.8105 | 786.994 | 782.989 | 778.908 | 774.712 | 770.827 | 1259.7 | 1240.2 | 1219.9 | 1201 | 1181.2
x2 = 0.9205 | 780.619 | 776.717 | 772.741 | 768.959 | 764.799 | 1262.4 | 1243.1 | 1223 | 1204.5 | 1185.6

CCCCN(CCCC)CCCC [tributylamine] + CCCCOC(C)=O
Settings | mass density, 293.15 K [kg/m3] | mass density, 298.15 K [kg/m3] | mass density, 303.15 K [kg/m3] | mass density, 308.15 K [kg/m3] | mass density, 313.15 K [kg/m3] | speed of sound, 293.15 K [m/s] | speed of sound, 298.15 K [m/s] | speed of sound, 303.15 K [m/s] | speed of sound, 308.15 K [m/s] | speed of sound, 313.15 K [m/s]
x1 = 0.0535 | 870.397 | 865.288 | 860.118 | 854.99 | 849.73 | 1214 | 1193.8 | 1175.2 | 1156 | 1132.7
x1 = 0.11 | 859.603 | 854.617 | 849.591 | 844.604 | 839.544 | 1217.1 | 1196.9 | 1178.2 | 1158.9 | 1135.7
x1 = 0.2003 | 844.278 | 839.544 | 834.725 | 829.963 | 825.128 | 1221.8 | 1201.9 | 1183.5 | 1163.8 | 1141.7
x1 = 0.3239 | 827.789 | 823.24 | 818.635 | 814.11 | 809.428 | 1228.3 | 1208.9 | 1189.5 | 1170.4 | 1148.8
x1 = 0.4004 | 818.98 | 814.604 | 810.171 | 805.768 | 801.312 | 1232.5 | 1212.3 | 1193.6 | 1174.4 | 1153.5
x1 = 0.502 | 809.109 | 804.828 | 800.541 | 796.282 | 791.968 | 1237.7 | 1217.4 | 1199.2 | 1180.1 | 1158.9
x1 = 0.592 | 801.571 | 797.439 | 793.26 | 789.105 | 784.862 | 1242.4 | 1222.7 | 1203.4 | 1185.3 | 1164.7
x1 = 0.7201 | 792.16 | 788.147 | 784.362 | 780.344 | 775.931 | 1249.1 | 1229.7 | 1210.9 | 1192 | 1171.8
x1 = 0.8002 | 787.449 | 783.513 | 779.542 | 775.588 | 771.559 | 1253.5 | 1233.7 | 1215 | 1195.9 | 1176.6
x1 = 0.9065 | 781.614 | 777.793 | 773.938 | 770.069 | 766.156 | 1259.1 | 1240 | 1220.6 | 1201.7 | 1183.1
x1 = 1 | 777.006 | 773.28 | 769.552 | 765.811 | 762.061 | 1264.2 | 1245.2 | 1226.2 | 1207.4 | 1188.8
